Data as given in patent publication US20250268736A1, “VASCULAR STENT AND MANUFACTURING PROCESS THEREFOR” (THE SECOND AFFILIATED HOSPITAL OF GUANGZHOU MEDICAL …, priority 2024, published 2025).

Tests used:
[1] = test system: endothelial protein C receptor (EPCR); test: Western blotting of EPCR protein expression in HCAECs treated with limus drugs or paclitaxel; type: cell-based, human; details: 24 h
Description: (§1) Specifically, HCAECs are cultured in an endothelial cell basal medium (EBM)-2 (Lonza, CC3156) supplemented with a 3% fetal bovine serum (FBS) and endothelial growth factor supplement mixture (Lonza, CC4176) under standard cell culture conditions (37° C., 5% CO2), and P3-5 cells are tested at 70%-80%. Western blotting is performed to test protein expression after HCAECs are treated with rapamycin, zotarolimus, everolimus, and paclitaxel at the doses shown in FIG. 1, or 100 nM of tacrolimus, deforolimus, biolimus A9, and pimecrolimus for 24 h. Alternatively, C57BL6/J mice received rapamycin, zotarolimus, everolimus, and paclitaxel at 2 mg/kg of body weight daily via tail vein injection for 2 weeks, and immunofluorescence observation of tissues is performed.

[2] = test system: endothelial protein C receptor (EPCR); test: Immunofluorescence of EPCR in mouse cardiac vessels after tail vein injection; type: in vivo; details: C57BL6/J mice, 2 mg/kg daily via tail vein injection for 2 weeks
Description: as §1

HCAECs [3] = test: EdU multiplication of HCAECs on coated 316 L stainless steel; type: cell-based, human; details: PLGA slow-release coating, 48 h, rapamycin 50 μg/mL, activators in combination with rapamycin
Description: (§2) The effect of APC on a simulated stent environment of PLGA slow-release coating on a 316 L steel sheet is investigated. Slow-release coatings of a solvent control (tetrahydrofuran, THF) wrapped in poly(lactic-co-glycolic acid) (PLGA 75:25), rapamycin (50 μg/mL), APC (50 μg/mL), 40 μM of TR47, and 20 μM of Parmodulin 2, or each in combination with rapamycin (50 μg/mL) are coated on surfaces of 316 L stainless steel plates respectively.
(§3) After HCAECs are grown on the 316 L stainless steel plate for 48 h, the cell viability is tested by a CCK-8 method, the cell multiplication capacity is tested by an EdU method, and the cell migration capacity is tested by a scratch method. […] Calcein-AM staining is followed by fluorescence microscopy.
(§4) The above cells are inoculated on 316 SS, 316 L SS/Rapamycin, 316 L SS/Rapamycin/APC, 316 L SS/Rapamycin/TR47, and 316 L SS/Rapamycin/Parmodulin 2 in a 24-well plate at a density of 2×10^4 cells/mL. 10 μL of CCK-8 reaction solution is added to a 24-well plate according to CCK-8 instructions, and the optical density value (OD value) is measured at 4 h by a spectrophotometer with a wavelength of 450 nm. For EdU analysis, reagent A is added a medium in a 24-well plate and cultured at 37° C. for 4 h to label EdU, and then, cells are captured with a fluorescence microscope (EVOS FL) according to manufacturer's instructions. […]

HCAECs [4] = test: CCK-8 viability of HCAECs on coated 316 L stainless steel; type: cell-based, human; details: PLGA slow-release coating, 48 h, rapamycin 50 μg/mL, activators in combination with rapamycin
Description: as §2, §3, §4

neutrophils on HCAECs = test: Adhesion of neutrophils to HCAECs on coated 316 L stainless steel; type: cell-based, human; details: PLGA slow-release coating on 316 L steel, co-culture 1 h; activators in combination with rapamycin
Description: as §2, §3, §4

HCAECs [5] = test: Scratch migration of HCAECs on coated 316 L stainless steel; type: cell-based, human; details: PLGA slow-release coating, 48 h, scratch method; rapamycin 50 μg/mL; activators in combination with rapamycin
Description: as §2
After HCAECs are grown on the 316 L stainless steel plate for 48 h, the cell viability is tested by a CCK-8 method, the cell multiplication capacity is tested by an EdU method, and the cell migration capacity is tested by a scratch method. The HCAECs are co-cultured with neutrophils (10^6/well) or platelets (5×10^6/well) labeled with 2 μM of PKH-26 for 1 h. Calcein-AM staining is followed by fluorescence microscopy.

platelets on HCAECs = test: Adhesion of platelets to HCAECs on coated 316 L stainless steel; type: cell-based, human; details: PLGA slow-release coating on 316 L steel, co-culture 1 h; activators in combination with rapamycin
Description: as §2, §3, §4

[6] = test system: vascular smooth muscle cells (HCASMCs, HASMCs); test: EdU cell multiplication of vascular smooth muscle cells; type: cell-based, human; details: APC 10 μM
Description: (§5) Generations 3-5 of primary human coronary artery smooth muscle cells (HCASMCs) are cultured in a growth medium (Cell applications, cat #31-500). Human arterial smooth muscle cells (HASMCs) are cultured in a smooth muscle cell culture medium containing 2% of FBS and 1% of penicillin/streptomycin at 37° C. in a humidified atmosphere containing 5% of CO2. Ad-EC or Ad-EPCR infected the cells for 48 h. APC is 10 μM, and rapamycin is 100 nM. Fluorescence is observed by a microscope. Protein expression is tested by means of western blotting. The cell viability is tested by means of CCK-8, the cell multiplication capacity is observed by means of EdU, and the migration capacity is evaluated by means of Transwel chamber and scratch tests.

[7] = test system: vascular smooth muscle cells (HCASMCs, HASMCs); test: Transwel chamber and scratch migration tests of vascular smooth muscle cells; type: cell-based, human; details: APC 10 μM
Description: as §5

HCAECs [8] = test: Growth of HCAECs on coated 316 L stainless steel (stent simulation environment); type: cell-based, human; details: PLGA slow-release coating, 48 h; rapamycin 50 μg/mL; activators (APC 50 μg/mL, TR47 40 μM, Parmodulin 2 20 μM) in combination with rapamycin
Description: as §2, §3, §4

[9] = test system: vascular smooth muscle cells (HCASMCs, HASMCs); test: CCK-8 cell viability of vascular smooth muscle cells; type: cell-based, human; details: APC 10 μM
Description: as §5

[10] = test system: endothelial protein C receptor (EPCR); test: Western blotting of EPCR expression and EPCR pathway in HCAECs treated with EPCR activators, alone or with rapamycin; type: cell-based, human; details: for activation of the EPCR pathway in HCAECs / protein expression of the EPCR in HCAECs: 10 μM APC, 40 μM TR47, 20 μM Parmodulin 2, 24 h; for effect on the rapamycin-induced inhibition of the EPCR in HCAECs: activator in combination with 100 nM rapamycin, 24 h
Description: Specifically, HCAECs are cultured in an EBM-2 (Lonza, CC3156) supplemented with a 3% fetal bovine serum (FBS) and endothelial growth factor supplement mixture (Lonza, CC4176) under standard cell culture conditions (37° C., 5% of CO2), and cells of generations of P3-5 are tested at 70%-80%. HCAECs are treated with 10 μM of APC, 40 μM of TR47 and 20 μM of Parmodulin 2, or each in combination with 100 nM of rapamycin for 24 h, and then, western blotting is performed for testing protein expression.

[11] = doses shown in FIG. 1, western blotting

CO[C@H]1C[C@@H]2CC[C@@H](C)[C@@](O)(O2)C(=O)C(=O)N2CCCC[C@H]2C(=O)O[C@H]([C@H](C)C[C@@H]2CC[C@@H](OCCO)[C@H](OC)C2)CC(=O)[C@H](C)/C=C(\C)[C@@H](O)[C@@H](OC)C(=O)[C@H](C)C[C@H](C)/C=C/C=C/C=C/1C [everolimus]
expression of EPCR in HCAECs [1, 11]: inhibit expression of an EPCR in HCAECs in a concentration-dependent manner
expression of EPCR in mouse cardiac vessels [2]: inhibit expression of the EPCR in mouse cardiac vessels

CC[C@@H]1/C=C(\C)C[C@H](C)C[C@H](OC)[C@H]2O[C@@](O)(C(=O)C(=O)N3CCCC[C@H]3C(=O)O[C@H](/C(C)=C/[C@@H]3CC[C@H](Cl)[C@H](OC)C3)[C@H](C)[C@@H](O)CC1=O)[C@H](C)C[C@@H]2OC [pimecrolimus]
expression of EPCR in HCAECs ([1]; 100 nM, western blotting): inhibit expression of the EPCR in HCAECs

activated protein C [APC]
multiplication of HCAECs on 316 L stainless steel (HCAECs [3]): restore
viability of HCAECs on 316 L stainless steel (HCAECs [4]): restore
adhesion of neutrophils to surface of ECs (neutrophils on HCAECs): inhibit adhesion
migration of HCAECs on 316 L stainless steel (HCAECs [5]): restore
adhesion of platelets to surface of ECs (platelets on HCAECs): inhibit adhesion
multiplication capacity of vascular smooth muscle cells [6]: does not affect
migration capacity of vascular smooth muscle cells [7]: does not affect
growth of HCAECs on 316 L stainless steel (HCAECs [8]): restore
cell viability of vascular smooth muscle cells [9]: does not affect
activation of the EPCR pathway in HCAECs [10]: protectively activate the EPCR pathway
protein expression of the EPCR in HCAECs [10]: induce protein expression of the EPCR in the cells
effect on the rapamycin-induced inhibition of the EPCR in HCAECs [10]: antagonize the inhibitory effect of limus drugs such as rapamycin on the EPCR

CO[C@H]1C[C@@H]2CC[C@@H](C)[C@@](O)(O2)C(=O)C(=O)N2CCCC[C@H]2C(=O)O[C@H]([C@H](C)C[C@@H]2CC[C@@H](OP(C)(C)=O)[C@H](OC)C2)CC(=O)[C@H](C)/C=C(\C)[C@@H](O)[C@@H](OC)C(=O)[C@H](C)C[C@H](C)/C=C/C=C/C=C/1C [deforolimus]
expression of EPCR in HCAECs ([1]; 100 nM, western blotting): inhibit expression of the EPCR in HCAECs

CO[C@H]1C[C@@H]2CC[C@@H](C)[C@@](O)(O2)C(=O)C(=O)N2CCCC[C@H]2C(=O)O[C@H]([C@H](C)C[C@@H]2CC[C@H](n3cnnn3)[C@H](OC)C2)CC(=O)[C@H](C)/C=C(\C)[C@@H](O)[C@@H](OC)C(=O)[C@H](C)C[C@H](C)/C=C/C=C/C=C/1C [zotarolimus]
expression of EPCR in HCAECs [1, 11]: inhibit expression of an EPCR in HCAECs in a concentration-dependent manner
expression of EPCR in mouse cardiac vessels [2]: inhibit expression of the EPCR in mouse cardiac vessels

C=CC[C@@H]1/C=C(\C)C[C@H](C)C[C@H](OC)[C@H]2O[C@@](O)(C(=O)C(=O)N3CCCC[C@H]3C(=O)O[C@H](/C(C)=C/[C@@H]3CC[C@@H](O)[C@H](OC)C3)[C@H](C)[C@@H](O)CC1=O)[C@H](C)C[C@@H]2OC [tacrolimus]
expression of EPCR in HCAECs ([1]; 100 nM, western blotting): inhibit expression of the EPCR in HCAECs

CCOCCO[C@@H]1CC[C@@H](C[C@@H](C)[C@@H]2CC(=O)[C@H](C)/C=C(\C)[C@@H](O)[C@@H](OC)C(=O)[C@H](C)C[C@H](C)/C=C/C=C/C=C(\C)[C@@H](OC)C[C@@H]3CC[C@@H](C)[C@@](O)(O3)C(=O)C(=O)N3CCCC[C@H]3C(=O)O2)C[C@H]1OC [biolimus A9]
expression of EPCR in HCAECs ([1]; 100 nM, western blotting): inhibit expression of the EPCR in HCAECs

CCCC(=O)Nc1cccc(NC(=O)c2ccccc2Br)c1 [Parmodulin 2]
multiplication of HCAECs on 316 L stainless steel (HCAECs [3]): restore
viability of HCAECs on 316 L stainless steel (HCAECs [4]): restore
adhesion of neutrophils to surface of ECs (neutrophils on HCAECs): inhibit adhesion
migration of HCAECs on 316 L stainless steel (HCAECs [5]): restore
adhesion of platelets to surface of ECs (platelets on HCAECs): inhibit adhesion
growth of HCAECs on 316 L stainless steel (HCAECs [8]): restore
activation of the EPCR pathway in HCAECs [10]: protectively activate the EPCR pathway
protein expression of the EPCR in HCAECs [10]: induce protein expression of the EPCR in the cells
effect on the rapamycin-induced inhibition of the EPCR in HCAECs [10]: antagonize the inhibitory effect of limus drugs such as rapamycin on the EPCR

CC(=O)O[C@H]1C(=O)[C@@]2(C)[C@H]([C@H](OC(=O)c3ccccc3)[C@]3(O)C[C@H](OC(=O)[C@H](O)[C@@H](NC(=O)c4ccccc4)c4ccccc4)C(C)=C1C3(C)C)[C@]1(OC(C)=O)CO[C@@H]1C[C@@H]2O [paclitaxel]
expression of EPCR in HCAECs [1, 11]: inhibit expression of an EPCR in HCAECs in a concentration-dependent manner
expression of EPCR in mouse cardiac vessels [2]: inhibit expression of the EPCR in mouse cardiac vessels
